Test results: patent US20240207285A1 (Melt Pharmaceuticals, Inc., priority 2022, published 2024)

Columns and labels:
[1] = system: subjects undergoing cataract extraction with lens replacement (CELR); assay: Phase 2 subjects completing the surgery; format: in vivo, human; conditions: Visit 2 (Day 1); Full Analysis Set
Experimental: (§1) The number of subjects achieving analgesia response (observed) in the full analysis set was determined. Success in analgesia response was defined as NPRS <4 at the available at the available four intraoperative timepoints and a failure otherwise (e.g., any interoperative pain rescue was assumed to be a failure. Results are provided in TABLE 24. The number of subjects completing the surgery is provided in TABLE 25, and the number of subjects completing the surgery without interruption is provided in TABLE 26. For this measure, subjects completing the surgery without interruption (other than rescue medication) due to pain or anxiety were considered successes. The number of subjects requiring rescue sedative medication and those requiring analgesic medication are provided in TABLES 27 and 28, respectively. For all TABLES 24-28, p-Values between pairs of treatments were calculated and are provided.

[2] = system: subjects undergoing cataract extraction with lens replacement (CELR); assay: Phase 2 subjects requiring rescue sedative medication; format: in vivo, human; conditions: Visit 2 (Day 1)
Experimental: as §1

[3] = system: subjects undergoing cataract extraction with lens replacement (CELR); assay: Phase 2 subjects achieving procedural sedation (RSS 2 or 3 without rescue); format: in vivo, human; conditions: Visit 2 (Day 1), Full Analysis Set
Experimental: A Phase 2 efficacy and safety study of the MELT-300 formulation was conducted at nine sites with over 300 enrolled subjects. MELT-300 is a sublingual, needle- and opioid-free formulation for procedural sedation during cataract surgery. […] MELT-300 utilizes fast-dissolving delivery technology (Zydis®, Catalent Inc.) to rapidly dissolve the tablet for absorption across the sublingual mucosa.
(§2) The Phase 2 study was factorial-designed, randomized, double-blind, placebo-controlled, and included parallel-cohorts. […] Primary efficacy endpoints included appropriate sedation during the cataract surgery and management of intraoperative pain during the surgery.
Achievement of procedural sedation was evaluated for each subject (see TABLE 19). Success for procedural sedation for this Phase 2 study was defined as achieving target sedation level (Ramsay Sedation Scale (RSS) scale level 2 or 3) at the start of surgery without the need for rescue sedation medication, and no need for intraoperative rescue sedation medication to maintain target sedation level.

[4] = system: subjects undergoing cataract extraction with lens replacement (CELR); assay: Phase 2 subjects achieving analgesia response (NPRS <4); format: in vivo, human; conditions: Visit 2 (Day 1), observed
Experimental: as §1

[5] = system: subjects undergoing cataract extraction with lens replacement (CELR); assay: Phase 2 subjects requiring rescue analgesic medication; format: in vivo, human; conditions: Visit 2 (Day 1); Full Analysis Set
Experimental: as §1

[6] = system: subjects undergoing cataract extraction with lens replacement (CELR); assay: Phase 2 mean intraoperative analgesia by the numeric pain rating scale; format: in vivo, human
Experimental: An average of the available timepoints was also calculated.

[7] = system: subjects undergoing cataract extraction with lens replacement (CELR); assay: Phase 2 subjects completing the surgery without interruption; format: in vivo, human; conditions: Visit 2 (Day 1); Full Analysis Set
Experimental: as §1

[8] = system: subjects undergoing cataract extraction with lens replacement (CELR); assay: Phase 2 treatment-emergent ocular adverse events (study eye, non-study eye, either eye); conditions: for Eye disorders, % / General disorders and administration site conditions, % / Infections and infestations, % / Injury, poisoning and procedural complications, % / Investigations, %: system organ class
Experimental: as §2
The study eye (TABLE 31) non-study eye (TABLE 32), or either eye (TABLE 33) was assessed. TEAES were defined as events that started on or after the date of the study drug administration through the end of Visit 4 or early withdrawal. Subjects with one or more adverse event within a level of Medical Dictionary for Regulatory Activities (MedDRA) were counted only once in that level.

[9] = system: subjects undergoing cataract extraction with lens replacement (CELR); assay: Phase 2 subjects receiving opioid concomitant medication postoperatively; format: in vivo, human
[10] = system: subjects undergoing cataract extraction with lens replacement (CELR); assay: Phase 2 subject-rated worst pain during surgery by the numeric pain rating scale; format: in vivo, human; conditions: carry forward
[11] = system: subjects undergoing cataract extraction with lens replacement (CELR); assay: Phase 2 subjects wanting study drug again for a second surgery (11-point Likert scale); format: in vivo, human
Source text: Post-operation, subjects were asked whether they would want the study drug again for a second surgery using an 11-point Likert scale of 0 (not likely at all) to 10 (extremely likely).

[12] = Average of available timepoints, adjusted for site table, carry forward
[13] = Average of available timepoints, carry forward
[14] = Average of available timepoints, observed
[15] = Corneal incision, adjusted for site table, carry forward
[16] = Corneal incision, carry forward
[17] = Insertion of the phacoemulsion probe, adjusted for site table, carry forward
[18] = Insertion of the phacoemulsion probe, carry forward
[19] = Insertion of the phacoemulsion probe, observed
[20] = Insertion of the speculum, adjusted for site table, carry forward
[21] = Insertion of the speculum, carry forward
[22] = Insertion of the speculum, observed
[23] = Insertion of the synthetic replacement lens, adjusted for site table, carry forward
[24] = Insertion of the synthetic replacement lens, carry forward
[25] = Insertion of the synthetic replacement lens, observed
[26] = 11-point Likert scale 0 (not likely at all) to 10 (extremely likely)

For `CNC1(c2ccccc2Cl)CCCCC1=O` (stereo not drawn) [Ketamine 50 mg], the “Subjects completing the surgery: No, %” value [1] was 0 (0) %, the “Subjects completing the surgery: Yes, %” value [1] was 100.0% and the “Subjects requiring rescue sedative medication: No, %” value ([2]; Full Analysis Set) was “(63.3) %”. For the same compound, the “Subjects requiring rescue sedative medication: Yes, %” value ([2]; Full Analysis Set) was “(36.7) %”, the “Subjects requiring rescue sedative medication: Intraoperatively, %” value ([2]; Intraoperatively) was “(6.3) %” and the “Subjects requiring rescue sedative medication: Pre-operatively, %” value ([2]; Pre-operatively) was “(30.4) %”. The “Subjects achieving procedural sedation: No, %” value [3] was 36.7%, the “Subjects achieving procedural sedation: Yes, %” value ([3]; RSS 2 or 3 without rescue sedation) was 63.3% and the “Subjects achieving analgesia response: Yes, %” value ([4]; NPRS <4 at four intraoperative timepoints) was 49.4%. For the same compound, the “Subjects achieving analgesia response: No, %” value [4] was 50.6%, the “Subjects requiring rescue analgesic medication: No, %” value [5] was “(59.5) %” and the “Subjects requiring rescue analgesic medication: Yes, %” value [5] was “(40.5) %”. For the same compound, the “Intraoperative NPRS, LS Mean” value ([6]; Average of available timepoints, adjusted for site (study center covariate), carry forward) was 1.89, the “Intraoperative NPRS, mean” value [6, 12] was 2.16 and the “Intraoperative NPRS, median” value [6, 12] was 1.75. For the same compound, the “Intraoperative NPRS, mean” value [6, 13] was 2.16, the “Intraoperative NPRS, median” value [6, 13] was 1.75 and the “Intraoperative NPRS, LS Mean” value ([6]; Average of available timepoints, carry forward, repeated measures model) was 2.16. The “Intraoperative NPRS, mean” value [6, 14] was 2.00, the “Intraoperative NPRS, median” value [6, 14] was 1.75 and the “Intraoperative NPRS, LS Mean” value ([6]; Average of available timepoints, observed, repeated measures model) was 2.22. The “Intraoperative NPRS, mean” value [6, 15] was 1.8, the “Intraoperative NPRS, median” value [6, 15] was 1.0 and the “Intraoperative NPRS, mean” value [6, 16] was 1.8. For the same compound, the “Intraoperative NPRS, median” value [6, 16] was 1.0, the “Intraoperative NPRS, mean” value ([6]; Corneal incision, observed) was 1.7 and the “Intraoperative NPRS, median” value ([6]; Corneal incision, observed) was 1.0. For the same compound, the “Intraoperative NPRS, mean” value [6, 17] was 2.5, the “Intraoperative NPRS, median” value [6, 17] was 2.0 and the “Intraoperative NPRS, mean” value [6, 18] was 2.5. The “Intraoperative NPRS, median” value [6, 18] was 2.0, the “Intraoperative NPRS, mean” value [6, 19] was 2.1 and the “Intraoperative NPRS, median” value [6, 19] was 2.0. For the same compound, the “Intraoperative NPRS, mean” value [6, 20] was 1.1, the “Intraoperative NPRS, median” value [6, 20] was 1.0 and the “Intraoperative NPRS, mean” value [6, 21] was 1.1. The “Intraoperative NPRS, median” value [6, 21] was 1.0, the “Intraoperative NPRS, mean” value [6, 22] was 1.1 and the “Intraoperative NPRS, median” value [6, 22] was 1.0. For the same compound, the “Intraoperative NPRS, mean” value [6, 23] was 3.3, the “Intraoperative NPRS, median” value [6, 23] was 3.0 and the “Intraoperative NPRS, mean” value [6, 24] was 3.3. For the same compound, the “Intraoperative NPRS, median” value [6, 24] was 3.0, the “Intraoperative NPRS, mean” value [6, 25] was 2.5 and the “Intraoperative NPRS, median” value [6, 25] was 2.0. For the same compound, the “Intraoperative NPRS, LS Mean Difference versus placebo” value ([6]; adjusted for site, carry forward) was −0.30, the “Intraoperative NPRS, LS Mean Difference versus placebo” value ([6]; carry forward, repeated measures model) was −0.32 and the “Intraoperative NPRS, LS Mean Difference versus placebo” value ([6]; observed, repeated measures model) was −0.26. The “Subjects completing the surgery without interruption: No, %” value [7] was “(6.3) %”, the “Subjects completing the surgery without interruption: Yes, %” value [7] was “(93.7) %” and the “Cataract operation complication, %” value ([8]; Either Eye) was “(0) %”. The “Conjunctivitis bacterial, %” value ([8]; Either Eye) was “(1.2) %”, the “Corneal abrasion, %” value ([8]; Either Eye) was “(0) %” and the “Corneal oedema, %” value ([8]; Either Eye) was “(1.2) %”. The “Endophthalmitis, %” value ([8]; Either Eye) was “(1.2) %”, the “Eye pain, %” value ([8]; Either Eye) was “(3.5) %” and the “Foreign body sensation in eyes, %” value ([8]; Either Eye) was “(0) %”. The “Intraocular pressure increased, %” value ([8]; Either Eye) was “(1.2) %”, the “Ocular hypertension, %” value ([8]; Either Eye) was “(1.2) %” and the “Pain, %” value ([8]; Either Eye) was “(0) %”. For the same compound, the “Paracentesis eye, %” value ([8]; Either Eye) was “(0) %”, the “Procedural pain, %” value ([8]; Either Eye) was “(0) %” and the “Subjects with Any Treatment-Emergent Ocular AEs, %” value ([8]; Either Eye) was “(8.2) %”. For the same compound, the “Vision blurred, %” value ([8]; Either Eye) was “(0) %”, the “Eye disorders, %” value ([8]; Either Eye) was “(5.9) %” and the “General disorders and administration site conditions, %” value ([8]; Either Eye) was “(0) %”. For the same compound, the “Infections and infestations, %” value ([8]; Either Eye) was “(2.4) %”, the “Injury, poisoning and procedural complications, %” value ([8]; Either Eye) was “(0) %” and the “Investigations, %” value ([8]; Either Eye) was “(1.2) %”. The “Conjunctivitis bacterial, %” value ([8]; Non-Study Eye) was “(1.2) %”, the “Eye pain, %” value ([8]; Non-Study Eye) was “(0) %” and the “Subjects with Any Treatment-Emergent Ocular AEs, %” value ([8]; Non-Study Eye) was “(1.2) %”. For the same compound, the “Vision blurred, %” value ([8]; Non-Study Eye) was “(0) %”, the “Eye disorders, %” value ([8]; Non-Study Eye) was “(0) %” and the “Infections and infestations, %” value ([8]; Non-Study Eye) was “(1.2) %”. For the same compound, the “Cataract operation complication, %” value ([8]; Study Eye) was “(0) %”, the “Corneal abrasion, %” value ([8]; Study Eye) was “(0) %” and the “Corneal oedema, %” value ([8]; Study Eye) was “(1.2) %”. The “Endophthalmitis, %” value ([8]; Study Eye) was “(1.2) %”, the “Eye pain, %” value ([8]; Study Eye) was “(3.5) %” and the “Foreign body sensation in eyes, %” value ([8]; Study Eye) was “(0) %”. The “Intraocular pressure increased, %” value ([8]; Study Eye) was “(1.2) %”, the “Ocular hypertension, %” value ([8]; Study Eye) was “(1.2) %” and the “Pain, %” value ([8]; Study Eye) was “(0) %”. The “Procedural pain, %” value ([8]; Study Eye) was “(0) %”, the “Subjects with Any Treatment-Emergent Ocular AEs, %” value ([8]; Study Eye) was “(7.1) %” and the “Eye disorders, %” value ([8]; Study Eye) was “(5.9) %”. For the same compound, the “General disorders and administration site conditions, %” value ([8]; Study Eye) was “(0) %”, the “Infections and infestations, %” value ([8]; Study Eye) was “(1.2) %” and the “Injury, poisoning and procedural complications, %” value ([8]; Study Eye) was “(0) %”. The “Investigations, %” value ([8]; Study Eye) was “(1.2) %”, the “Paracentesis eye, %” value ([8]; printed in the Non-Study Eye table) was “(0) %” and the “Received Postoperative Opioid on Day 2: No, %” value ([9]; Day 2) was “(100.0) %”. For the same compound, the “Received Postoperative Opioid on Day 2: Yes, %” value ([9]; Day 2) was “(0.0) %”, the “Received Postoperative Opioid on Day 2-8: No, %” value ([9]; Day 2-8) was “(100.0) %” and the “Received Postoperative Opioid on Day 2-8: Yes, %” value ([9]; Day 2-8) was “(0.0) %”. The “Worst Pain During Surgery, Mean Difference versus placebo” value [10] was −0.33, the “Worst Pain During Surgery (NPRS), mean” value ([10]; Full Analysis Set) was 3.7 and the “Worst Pain During Surgery (NPRS), median” value ([10]; Full Analysis Set) was 4.0. The “Want Study Drug Again, mean” value [11, 26] was 7.6, the “Want Study Drug Again, median” value [11, 26] was 10.0 and the “Want Study Drug Again, Mean Difference versus placebo” value ([11]; unpaired t-test) was −0.05.
